EC50 data for 15 molecules are collected here from patent publication US11820773B2, “Tricyclic compounds” (ALIGOS THERAPEUTICS, INC., priority 2020, dated 2023).

One may read the EC50 as the midpoint of the concentration-response curve. A high value points to lower potency in that assay.

Structures can show the parent of a compound that is named as a salt.

For this assay, the system named is HBV. Put plainly: HBV-DNA antiviral assay using HepG2.117 cells (intracellular HBV DNA by qPCR). Type of assay: cell-based, genotype D HBV. Conditions: Hepatitis B virus, 72 h, HBV DNA inhibition, 3 days incubation, 2% DMSO. Put shortly:
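Endpoints are intracellular HBV DNA by qPCR (interpolated from a gBlock standard curve) and ATP-based viability in duplicate plates. Doxycycline-free HepG2.117 Tet-off cells received compounds (9 concentrations, 4-fold steps, 2% DMSO) for 3 days. Inhibition normalised to DMSO wells; EC50/EC90/CC50 by curve fitting.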
In general terms: In qPCR the cycle at which signal appears reflects the starting amount.

For the molecule `C[C@@H]1Cc2c(n3ncc(CC4CC4)c3n(-c3ccc(-c4nncn4C)cc3)c2=O)CN1C(=O)c1ccc(Br)c(C(F)(F)F)c1` (stereo in doubt) [Compound 40a, rac-(11R)-12-[4-bromo-3-(trifluoromethyl)benzoyl]-5-(cyclopropylmethyl)-11-methyl-7-[4-(4-methyl-1,2,4-triazol-3-yl)phenyl]-2,3,7,12-tetrazatricyclo[7.4.0.0^2,6]trideca-1(9),3,5-trien-8-one], the EC50 was < 50 nM.
Under `CNc1n[nH]c2cc(-n3c(=O)c4c(n5ncc(CC6CC6)c35)CN(C(=O)c3ccc(Br)c(Cl)c3)CC4)ccc12` [Compound 27, 12-(4-bromo-3-chloro-benzoyl)-5-(cyclopropylmethyl)-7-[3-(methylamino)-1H-indazol-6-yl]-2,3,7,12-tetrazatricyclo[7.4.0.0^2,6]trideca-1(9),3,5-trien-8-one] stands < 50 nM.
Then `CNC(=O)c1ccc(-n2c(=O)c3c(n4ncc(Cc5ccsc5)c24)CN(C(=O)c2ccc(Br)c(Cl)c2)CC3)cc1` [Compound 18, 4-[12-(4-bromo-3-chloro-benzoyl)-8-oxo-5-(3-thienylmethyl)-2,3,7,12-tetrazatricyclo[7.4.0.0^2,6]trideca-1(9),3,5-trien-7-yl]-N-methyl-benzamide], with < 50 nM.
Then `C[C@H]1Cc2c(n3ncc(CC4CC4)c3n(-c3ccc(C(=O)N(C)CO)cc3)c2=O)CN1C(=O)c1ccc(Br)c(C(F)(F)F)c1` (stereo in doubt) [Compound 91, N-(hydroxymethyl)-N-methyl-4-[rac-(11S)-12-[4-bromo-3-(trifluoromethyl)benzoyl]-5-(cyclopropylmethyl)-11-methyl-8-oxo-2,3,7,12-tetrazatricyclo[7.4.0.0^2,6]trideca-1 (9),3,5-trien-7-yl]benzamide], with > 5000 nM.
Consider `C#CCc1cnn2c3c(c(=O)n(-c4ccc(C(=O)NC)cc4)c12)CCN(C(=O)c1ccc(Br)c(C(F)(F)F)c1)C3` [Compound 42, 4-[12-[4-bromo-3-(trifluoromethyl)benzoyl]-8-oxo-5-prop-2-ynyl-2,3,7,12-tetrazatricyclo[7.4.0.0^2,6]trideca-1(9),3,5-trien-7-yl]-N-methyl-benzamide], for which the EC50 is < 50 nM.
Then `Cc1cnn(-c2ccc(-n3c(=O)c4c(n5ncc(CC(C)C)c35)CN(C(=O)c3ccc(Br)c(C(F)(F)F)c3)[C@H](C)C4)cc2)c1` (stereo in doubt) [Compound 98a, rac-(11R)-12-[4-bromo-3-(trifluoromethyl)benzoyl]-5-isobutyl-11-methyl-7-[4-(4-methylpyrazol-1-yl)phenyl]-2,3,7,12-tetrazatricyclo[7.4.0.0^2,6]trideca-1(9),3,5-trien-8-one], with < 50 nM; and `CC(C)Cc1cnn2c3c(c(=O)n(-c4ccc5c(c4)ncn5C)c12)C[C@H](C)N(C(=O)c1ccc(Br)c(C(F)(F)F)c1)C3` (stereo in doubt) [Compound 86b, rac-(11S)-12-[4-bromo-3-(trifluoromethyl)benzoyl]-5-isobutyl-11-methyl-7-(1-methylbenzimidazol-5-yl)-2,3,7,12-tetrazatricyclo[7.4.0.0^2,6]trideca-1(9),3,5-trien-8-one], with 50 to 500 nM.
In the case of `Cc1cnn(-c2ccc(-n3c(=O)c4c(n5ncc(Cc6ccccc6)c35)CN(C(=O)c3ccc(Br)c(Cl)c3)CC4)cc2)c1` [Compound 7, 5-benzyl-12-(4-bromo-3-chloro-benzoyl)-7-[4-(4-methylpyrazol-1-yl)phenyl]-2,3,7,12-tetrazatricyclo[7.4.0.0^2,6]trideca-1(9),3,5-trien-8-one], the EC50 is < 50 nM.
Under `O=C(c1ccc(Br)c(Cl)c1)N1CCc2c(n3ncc(Cc4ccccc4)c3n(-c3ccc(-n4ccc(C(F)(F)F)n4)cc3)c2=O)C1` [Compound 13, 5-benzyl-12-(4-bromo-3-chloro-benzoyl)-7-[4-[3-(trifluoromethyl)pyrazol-1-yl]phenyl]-2,3,7,12-tetrazatricyclo[7.4.0.0^2,6]trideca-1(9),3,5-trien-8-one] stands 50 to 500 nM; under `C[C@@H]1Cc2c(n3ncc(Cc4ccccc4)c3n(-c3ccc(-c4nncn4C)cc3)c2=O)CN1C(=O)c1ccc(Br)c(C(F)(F)F)c1` (stereo in doubt) [Compound 39a, rac-(11R)-5-benzyl-12-[4-bromo-3-(trifluoromethyl)benzoyl]-11-methyl-7-[4-(4-methyl-1,2,4-triazol-3-yl)phenyl]-2,3,7,12-tetrazatricyclo[7.4.0.0^2,6]trideca-1(9),3,5-trien-8-one], < 50 nM.
Then `CNC(=O)c1ccc(-n2c(=O)c3c(n4ncc(CC(C)C)c24)CN(C(=O)c2ccc(Cl)c(C(F)(F)F)c2)[C@H](C)C3)cc1` (stereo in doubt) [Compound 54a, N-methyl-4-[rac-(11R)-12-[4-chloro-3-(trifluoromethyl)benzoyl]-5-isobutyl-11-methyl-8-oxo-2,3,7,12-tetrazatricyclo[7,4.0.0^2,6]trideca-1(9),3,5-trien-7-yl]benzamide], with < 50 nM; and `CC(C)Cc1cnn2c3c(c(=O)n(-c4ccc5c(c4)ncn5C)c12)C[C@@H](C)N(C(=O)c1ccc(Br)c(C(F)(F)F)c1)C3` (stereo in doubt) [Compound 86a, rac-(11R)-12-[4-bromo-3-(trifluoromethyl)benzoyl]-5-isobutyl-11-methyl-7-(1-methylbenzimidazol-5-yl)-2,3,7,12-tetrazatricyclo[7.4.0.0^2,6]trideca-1(9),3,5-trien-8-one], with < 50 nM.
Under `CC(C)[C@@H](N)C(=O)OCN(C)C(=O)c1ccc(-n2c(=O)c3c(n4ncc(CC5CC5)c24)CN(C(=O)c2ccc(Br)c(C(F)(F)F)c2)[C@@H](C)C3)cc1` (racemic) [Compound 96, [[4-[(11SR)-12-[4-bromo-3-(trifluoromethyl)benzoyl]-5-(cyclopropylmethyl)-11-methyl-8-oxo-2,3,7,12-tetrazatricyclo[7.4.0.0^2,6]trideca-1(9),3,5-trien-7-yl]benzoyl]-methyl-amino]methyl (2R)-2-amino-3-methyl-butanoate; hydrochloride] stands 500 to 5000 nM; under `C[C@@H]1Cc2c(n3ncc(CC4CC4)c3n(-c3ccc(C(=O)N(C)CO)cc3)c2=O)CN1C(=O)c1ccc(Br)c(C(F)(F)F)c1` (stereo in doubt) [Compound 101, N-(hydroxymethyl)-N-methyl-4-[rac-(11R)-12-[4-bromo-3-(trifluoromethyl)benzoyl]-5-(cyclopropylmethyl)-11-methyl-8-oxo-2,3,7,12-tetrazatricyclo[7.4.0.0^2,6]trideca-1(9),3,5-trien-7-yl]benzamide], 50 to 500 nM.
As for `C[C@@H]1Cc2c(n3ncc(Cc4ccccc4)c3n(-c3ccc(-c4nnc(C(F)(F)F)[nH]4)cc3)c2=O)CN1C(=O)c1ccc(Br)c(C(F)(F)F)c1` (stereo in doubt) [Compound 74a, rac-(11R)-5-benzyl-12-[4-bromo-3-(trifluoromethyl)benzoyl]-11-methyl-7-[4-[5-(trifluoromethyl)-4H-1,2,4-triazol-3-yl]phenyl]-2,3,7,12-tetrazatricyclo[7.4.0.0^2,6]trideca-1(9),3,5-trien-8-one], the EC50 was < 50 nM.
